These results are taken from PubChem BioAssay AID1259407 (Chemical Carcinogenesis Research Information System (CCRIS), 2018).

This data set concerns CCRIS mutagenicity, Ames/micronucleus/aberration tests. Description: CCRIS mutagenicity studies.
The mark [1] stands for this setting: Test System: AMES SALMONELLA TYPHIMURIUM, Strain/Indicator: TA98, Metabolic Activation: NONE, Method: PREINCUBATION
Setting [2] is: Test System: AMES SALMONELLA TYPHIMURIUM, Strain/Indicator: TA100, Metabolic Activation: NONE, Method: STANDARD PLATE.
Where [3] appears, read: Test System: AMES SALMONELLA TYPHIMURIUM, Strain/Indicator: TA98, Metabolic Activation: NONE, Method: STANDARD PLATE.
Setting [4] is: Test System: AMES SALMONELLA TYPHIMURIUM, Strain/Indicator: TA98, Metabolic Activation: NONE.

Structures are written as SMILES. Activity calls are given as the source filed them. The rule behind the calls is not given here.

On to `Cc1ccc(CO)cc1`, for which the mutagenic call is “inactive; negative” (Test System: AMES SALMONELLA TYPHIMURIUM, Strain/Indicator: TA97, Metabolic Activation: HAMSTER, LIVER, S-9, AROCLOR 1254 (10%), Method: PREINCUBATION); “inactive; negative” (Test System: AMES SALMONELLA TYPHIMURIUM, Strain/Indicator: TA97, Metabolic Activation: HAMSTER, LIVER, S-9, AROCLOR 1254 (30%), Method: PREINCUBATION); “inactive; negative” (Test System: AMES SALMONELLA TYPHIMURIUM, Strain/Indicator: TA97, Metabolic Activation: NONE, Method: PREINCUBATION); “inactive; negative” (Test System: AMES SALMONELLA TYPHIMURIUM, Strain/Indicator: TA97, Metabolic Activation: RAT, LIVER, S-9, AROCLOR 1254 (10%), Method: PREINCUBATION); “inactive; negative” (Test System: AMES SALMONELLA TYPHIMURIUM, Strain/Indicator: TA97, Metabolic Activation: RAT, LIVER, S-9, AROCLOR 1254 (30%), Method: PREINCUBATION); “inactive; negative” (Test System: AMES SALMONELLA TYPHIMURIUM, Strain/Indicator: TA98, Metabolic Activation: HAMSTER, LIVER, S-9, AROCLOR 1254 (10%), Method: PREINCUBATION). The mutagenic call was “inactive; negative” (Test System: AMES SALMONELLA TYPHIMURIUM, Strain/Indicator: TA98, Metabolic Activation: HAMSTER, LIVER, S-9, AROCLOR 1254 (30%), Method: PREINCUBATION); “inactive; negative” under setting [1]; “inactive; negative” (Test System: AMES SALMONELLA TYPHIMURIUM, Strain/Indicator: TA98, Metabolic Activation: RAT, LIVER, S-9, AROCLOR 1254 (10%), Method: PREINCUBATION); “inactive; negative” (Test System: AMES SALMONELLA TYPHIMURIUM, Strain/Indicator: TA98, Metabolic Activation: RAT, LIVER, S-9, AROCLOR 1254 (30%), Method: PREINCUBATION); “inactive; negative” (Test System: AMES SALMONELLA TYPHIMURIUM, Strain/Indicator: TA100, Metabolic Activation: HAMSTER, LIVER, S-9, AROCLOR 1254 (10%), Method: PREINCUBATION); “inactive; negative” (Test System: AMES SALMONELLA TYPHIMURIUM, Strain/Indicator: TA100, Metabolic Activation: HAMSTER, LIVER, S-9, AROCLOR 1254 (30%), Method: PREINCUBATION). The mutagenic call runs as follows: (Test System: AMES SALMONELLA TYPHIMURIUM, Strain/Indicator: TA100, Metabolic Activation: NONE, Method: PREINCUBATION) “inactive; negative”; under setting [2], “inactive; negative”; (Test System: AMES SALMONELLA TYPHIMURIUM, Strain/Indicator: TA100, Metabolic Activation: RAT, LIVER, S-9, AROCLOR 1254 (10%), Method: PREINCUBATION) “inactive; negative”; (Test System: AMES SALMONELLA TYPHIMURIUM, Strain/Indicator: TA100, Metabolic Activation: RAT, LIVER, S-9, AROCLOR 1254 (30%), Method: PREINCUBATION) “inactive; negative”; (Test System: AMES SALMONELLA TYPHIMURIUM, Strain/Indicator: TA1535, Metabolic Activation: HAMSTER, LIVER, S-9, AROCLOR 1254 (10%), Method: PREINCUBATION) “inactive; negative”; (Test System: AMES SALMONELLA TYPHIMURIUM, Strain/Indicator: TA1535, Metabolic Activation: HAMSTER, LIVER, S-9, AROCLOR 1254 (30%), Method: PREINCUBATION) “inactive; negative”. For the same compound, the mutagenic call is, setting by setting: (Test System: AMES SALMONELLA TYPHIMURIUM, Strain/Indicator: TA1535, Metabolic Activation: NONE, Method: PREINCUBATION) “inactive; negative”; (Test System: AMES SALMONELLA TYPHIMURIUM, Strain/Indicator: TA1535, Metabolic Activation: RAT, LIVER, S-9, AROCLOR 1254 (10%), Method: PREINCUBATION) “inactive; negative”; (Test System: AMES SALMONELLA TYPHIMURIUM, Strain/Indicator: TA1535, Metabolic Activation: RAT, LIVER, S-9, AROCLOR 1254 (30%), Method: PREINCUBATION) “inactive; negative”; (Test System: AMES SALMONELLA TYPHIMURIUM, Strain/Indicator: TA1537, Metabolic Activation: HAMSTER, LIVER, S-9, AROCLOR 1254 (30%), Method: PREINCUBATION) “inactive; negative”; (Test System: AMES SALMONELLA TYPHIMURIUM, Strain/Indicator: TA1537, Metabolic Activation: NONE, Method: PREINCUBATION) “inactive; negative”; (Test System: AMES SALMONELLA TYPHIMURIUM, Strain/Indicator: TA1537, Metabolic Activation: RAT, LIVER, S-9, AROCLOR 1254 (30%), Method: PREINCUBATION) “inactive; negative”.

In the case of `[O]=[U](=[O])=[O]`, the mutagenic call (Test System: Human bronchial epithelial (BEP2D) cells, Metabolic Activation: None, Method: Morphological transformation) was “active; positive. depleted uranium transformed cell lines exhibited significant chromoso”.

As for `CN1CCN=C(c2ccccc2)c2cc(Cl)ccc21`, the mutagenic call is, setting by setting: under setting [3], “inactive; negative”; (Test System: AMES SALMONELLA TYPHIMURIUM, Strain/Indicator: TA98, Metabolic Activation: RAT, LIVER, S-9, AROCLOR 1254, Method: STANDARD PLATE) “inactive; negative”; under setting [2], “inactive; negative”; (Test System: AMES SALMONELLA TYPHIMURIUM, Strain/Indicator: TA100, Metabolic Activation: RAT, LIVER, S-9, AROCLOR 1254, Method: STANDARD PLATE) “inactive; negative”; (Test System: AMES SALMONELLA TYPHIMURIUM, Strain/Indicator: TA1535, Metabolic Activation: NONE, Method: STANDARD PLATE) “inactive; negative”; (Test System: AMES SALMONELLA TYPHIMURIUM, Strain/Indicator: TA1535, Metabolic Activation: RAT, LIVER, S-9, AROCLOR 1254, Method: STANDARD PLATE) “inactive; negative”. In addition, the mutagenic call was “inactive; negative” (Test System: AMES SALMONELLA TYPHIMURIUM, Strain/Indicator: TA1537, Metabolic Activation: NONE, Method: STANDARD PLATE) and “inactive; negative” (Test System: AMES SALMONELLA TYPHIMURIUM, Strain/Indicator: TA1537, Metabolic Activation: RAT, LIVER, S-9, AROCLOR 1254, Method: STANDARD PLATE).

`CC[C@@]1(O)C[C@H](O[C@H]2C[C@H](N(C)C)[C@H](O[C@H]3C[C@H](O)[C@H](O[C@@H]4O[C@@H](C)C(=O)C=C4N)[C@H](C)O3)[C@H](C)O2)c2c(cc3c(c2O)C(=O)c2c(O)ccc(O)c2C3=O)[C@H]1C(=O)OC`: the mutagenic call reads like this: under setting [4], “active; positive”; (Test System: AMES SALMONELLA TYPHIMURIUM, Strain/Indicator: TA98, Metabolic Activation: RAT, LIVER, S-9, AROCLOR 1254) “active; positive”.

For `ClCc1ccc2ccc3cccc4ccc1c2c34`, the mutagenic call is “active; positive” under setting [4], “active; positive” under setting [1], “active; positive” under setting [3] and “active; positive” under setting [2].

As for `COCCN(CCOC)c1cc(NC(C)=O)c(-n2nc3c(Br)cc(N)c(Cl)c3n2)cc1OC`, the mutagenic call reads like this: (Test System: AMES SALMONELLA TYPHIMURIUM, Strain/Indicator: TA98, Metabolic Activation: RAT LIVER S-9, AROCLOR 1254, Method: STANDARD PLATE) “active; positive”; (Test System: AMES SALMONELLA TYPHIMURIUM, Strain/Indicator: TA100, Metabolic Activation: RAT LIVER S-9, AROCLOR 1254, Method: STANDARD PLATE) “active; positive”; (Test System: AMES SALMONELLA TYPHIMURIUM, Strain/Indicator: TA104, Metabolic Activation: RAT LIVER S-9, AROCLOR 1254, Method: STANDARD PLATE) “active; positive”; (Test System: AMES SALMONELLA TYPHIMURIUM, Strain/Indicator: YG1024, Metabolic Activation: RAT LIVER S-9, PHENOBARBITAL, 5,6-BENZOFLAVONE (10%), Method: PREINCUBATION) “active; positive”.

For `CC(Oc1ccc(Oc2cnc3cc(Cl)ccc3n2)cc1)C(=O)O` (stereo not given), the mutagenic call by setting is: (Test System: Mouse lymphoma, Strain/Indicator: L5178Y (tk+/tk-), Metabolic Activation: None, Method: Suspension/plate) “active; positive”; (Test System: Mouse lymphoma, Strain/Indicator: L5178Y (tk+/tk-), Metabolic Activation: Rat, Liver, S-9, Aroclor 1254, Method: Suspension/plate) “active; positive”.
